The target in one data set is MMP-9 (Homo sapiens, UniProt P14780). Nature of the data set: MMP-9 inhibition (thiopeptide or fluorescent peptide substrate). The note with it: read-out: MMP-9 IC50. The format is biochemical.
Another data set concerns the target MMP-13 (Homo sapiens, UniProt P45452). Nature of the data set: MMP-13 inhibition (thiopeptide or fluorescent peptide substrate). Particulars: read-out: MMP-13 IC50. The format is biochemical.
The next data set has as its target T1, MMP-1 (Homo sapiens, UniProt P03956).
T1 sequence (P03956 100-469): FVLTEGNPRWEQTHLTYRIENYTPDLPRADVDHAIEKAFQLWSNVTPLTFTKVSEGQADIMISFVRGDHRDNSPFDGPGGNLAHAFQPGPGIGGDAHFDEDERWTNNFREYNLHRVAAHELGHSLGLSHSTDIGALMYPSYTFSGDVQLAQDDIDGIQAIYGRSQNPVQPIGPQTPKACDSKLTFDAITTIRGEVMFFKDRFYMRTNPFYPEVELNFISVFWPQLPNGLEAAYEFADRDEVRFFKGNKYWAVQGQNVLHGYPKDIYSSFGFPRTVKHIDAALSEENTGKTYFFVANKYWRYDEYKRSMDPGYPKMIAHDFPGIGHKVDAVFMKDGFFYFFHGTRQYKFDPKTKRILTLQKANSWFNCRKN
Nature of the data set: MMP-1 inhibition (thiopeptide or fluorescent peptide substrate). The format is biochemical. The note with it: read-out: MMP-1 IC50.

Data set [1] deals with TNF-α converting enzyme (TACE) (Homo sapiens, UniProt P78536). As to the kind of experiment: TACE inhibition (fluorescent peptidyl substrate). Type of data set: biochemical.
TNF-α converting enzyme (TACE), sequence (P78536 215-824, species assumed): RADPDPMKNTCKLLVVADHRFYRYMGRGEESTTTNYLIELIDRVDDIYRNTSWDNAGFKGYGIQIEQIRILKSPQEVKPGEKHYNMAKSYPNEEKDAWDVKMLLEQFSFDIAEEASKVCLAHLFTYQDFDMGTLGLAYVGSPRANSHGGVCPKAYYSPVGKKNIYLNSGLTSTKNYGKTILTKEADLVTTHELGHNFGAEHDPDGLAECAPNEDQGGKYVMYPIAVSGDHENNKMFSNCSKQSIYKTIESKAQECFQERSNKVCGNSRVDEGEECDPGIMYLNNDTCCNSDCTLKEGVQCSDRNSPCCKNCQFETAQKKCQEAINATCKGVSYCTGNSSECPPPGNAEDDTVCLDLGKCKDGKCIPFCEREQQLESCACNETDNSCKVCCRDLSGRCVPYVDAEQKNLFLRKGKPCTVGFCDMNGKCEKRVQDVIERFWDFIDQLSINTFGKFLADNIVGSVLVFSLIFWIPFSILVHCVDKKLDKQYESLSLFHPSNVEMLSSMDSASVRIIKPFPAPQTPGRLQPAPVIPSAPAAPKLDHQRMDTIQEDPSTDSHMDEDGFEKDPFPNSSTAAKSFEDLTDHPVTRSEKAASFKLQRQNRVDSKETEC
Procedure: Using 96-well black microtiter plates, each well receives a solution composed of 10 μL TACE (final concentration 1 μg/mL), 70 μL Tris buffer, pH 7.4 containing 10% glycerol (final concentration 10 mM), and 10 μL of test compound solution in DMSO (final concentration 1 μM, DMSO concentration <1%) and incubated for 10 minutes at room temperature.
The reaction is read (excitation 340 nm, emission 420 nm) for 10 min. and the increase in fluorescence over time is plotted as a linear line. The slope of the line is calculated and represents the reaction rate.
The linearity of the reaction rate is confirmed (r^2>0.85). The mean (x±sem) of the control rate is calculated and compared for statistical significance (p<0.05) with drug-treated rates using Dunnett's multiple comparison test.

Our source for the IC50 and melting point values is patent US6716833B2, “Acetylenic α-amino acid-based sulfonamide hydroxamic acid tace inhibitors” (priority 1999, dated 2004).

Read-outs that look alike come from different tables or passages of the source.

MMP-9, sequence (P14780 94-707): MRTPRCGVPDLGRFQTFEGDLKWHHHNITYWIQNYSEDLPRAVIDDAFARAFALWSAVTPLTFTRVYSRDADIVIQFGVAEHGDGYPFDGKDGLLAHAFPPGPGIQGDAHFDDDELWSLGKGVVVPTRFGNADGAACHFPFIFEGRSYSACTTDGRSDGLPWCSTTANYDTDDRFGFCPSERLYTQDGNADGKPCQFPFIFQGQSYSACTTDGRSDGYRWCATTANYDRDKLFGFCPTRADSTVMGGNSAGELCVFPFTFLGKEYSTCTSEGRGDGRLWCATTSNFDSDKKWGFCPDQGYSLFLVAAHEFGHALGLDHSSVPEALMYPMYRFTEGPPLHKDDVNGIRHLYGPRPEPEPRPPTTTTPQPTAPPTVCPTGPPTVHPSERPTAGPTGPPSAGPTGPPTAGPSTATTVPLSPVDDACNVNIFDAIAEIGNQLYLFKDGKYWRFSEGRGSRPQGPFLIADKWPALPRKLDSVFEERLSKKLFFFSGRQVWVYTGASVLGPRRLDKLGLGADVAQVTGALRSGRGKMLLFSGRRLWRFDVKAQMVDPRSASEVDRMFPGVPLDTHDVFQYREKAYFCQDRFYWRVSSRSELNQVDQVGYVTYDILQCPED
Procedure for MMP-9: The enzyme activity is measured by the rate of the color increase. The thiopeptide substrate is made up fresh as a 20 mM stock in 100% DMSO and the DTNB is dissolved in 100% DMSO as a 100 mM stock and stored in the dark at room temperature. Both the substrate and DTNB are diluted together to 1 mM with substrate buffer (50 mM HEPES pH 7.5, 5 mM CaCl2) before use. The stock of enzyme is diluted with buffer (50 mM HEPES, pH 7.5, 5 mM CaCl2, 0.02% Brij) to the desired final concentration.
Alternatively, a fluorescent peptide substrate is used. In this test procedure, the peptide substrate contains a fluorescent group and a quenching group. Upon cleavage of the substrate by an MMP, the fluorescence that is generated is quantitated on the fluorescence plate reader. The assay is run in HCBC assay buffer (50 mM HEPES, pH 7.0, 5 mM Ca^+2, 0.02% Brij, 0.5% Cysteine), with human recombinant MMP-1, MMP-9, or MMP-13. […] For the assay, substrate and enzymes are diluted in HCBC buffer to the desired concentrations. Compounds are added to the 96 well plate containing enzyme and the reaction is started by the addition of substrate.
For either the thiopeptide or fluorescent peptide test procedures, the slope of the line is calculated and represents the reaction rate. The linearity of the reaction rate is confirmed (r^2>0.85). The mean (x±sem) of the control rate is calculated and compared for statistical significance (p<0.05) with drug-treated rates using Dunnett's multiple comparison test.

Broadly, the IC50 is the concentration at which inhibition is half-maximal. What is called melting point is the temperature of the solid-liquid transition. In turn, `CC#CCOc1ccc(S(=O)(=O)N(C)C(C(=O)NO)C(C)(C)SCc2ccccc2)cc1` (centres unmarked) [Example 153, 2-[(4-but-2-ynyloxy-Benenesulfonyl)-methyl-amino]-N-hydroxy-3-methyl-3-benzylsulfanyl-butyramide] came in with a melting point of 156 to 158 °C. Besides, the concentration for half-maximal inhibition (IC50) at MMP-9 came to 5.5 nM. The IC50 on MMP-13 came to 2 nM. For the same molecule, the IC50 on MMP-1 is 13 nM. The IC50 in data set [1] (read-out: TACE IC50) is 160 nM.

In the case of `CC#CCOc1ccc(S(=O)(=O)N(C)C(C(=O)NO)C(C)(C)SCCN2CCN(C)CC2)cc1` (centres unmarked) [Example 141], the melting point is 110 to 115 °C. In addition, at MMP-9, the IC50 was determined as 8.3 nM. The concentration for half-maximal inhibition (IC50) at MMP-13 came to 7.6 nM. Further, the IC50 at MMP-1 was 17 nM. Also, in data set [1] (read-out: TACE IC50), the concentration for half-maximal inhibition (IC50) was determined as 101 nM.

Consider `CC#CCOc1ccc(S(=O)(=O)N(C)C(C(=O)NO)c2ccc(OCCCNC(=O)Nc3ccccc3)cc2)cc1` (centres unmarked) [Example 198, 2-(4-{3-[(Anilinocarbonyl)amino]propoxy}phenyl)-2-[{[4-(2-butynyloxy)phenyl]sulfonyl}(methyl)amino]-N-hydroxyacetamide], for which the melting point was 135 °C (dec.). Further, the IC50 on MMP-13 came out at 11 nM. The IC50 at MMP-1 stood at 834 nM. Besides, the 50% inhibitory concentration (IC50) in data set [1] (read-out: TACE IC50) was determined as 62 nM.

`CC#CCOc1ccc(S(=O)(=O)N2CCOCC2C(=O)NO)cc1` (centres unmarked) [Example 240, 4-([4-(2-Butynyloxy)phenyl]sulfonyl}-N-hydroxy-3-morpholinecarboxamide] displayed a melting point of 68 to 72 °C. At MMP-9 (Table 9), the IC50 is 170 nM. Further, the IC50 at MMP-13 (Table 9) came to 26 nM. The molecule also displayed an IC50 in data set [1] (TACE IC50) of 4.5 nM.

For `CC#CCOc1ccc(S(=O)(=O)N(C)C(C(=O)NO)C(C)(C)SCCCN2CCOCC2)cc1` (centres unmarked) [Example 146], the melting point lay within 48 to 52 °C. Besides, the half-maximal inhibitory concentration (IC50) on MMP-9 is 5.3 nM. The IC50 at MMP-13 amounted to 3.6 nM. Further, the IC50 at MMP-1 stood at 13 nM. In data set [1] (read-out: TACE IC50), the IC50 was 132 nM.

On to `CC#CCOc1ccc(S(=O)(=O)N(C)[C@@H](C(=O)NO)[C@H]2CC[C@H](O)CC2)cc1` [Example 130], for which the melting point was in the range of 195 to 197 °C. Also, the IC50 on MMP-9 stood at 30 nM. For the same molecule, the IC50 on MMP-13 was determined as 15 nM. In addition, the IC50 at MMP-1 was determined as 169 nM. Further, in data set [1] (read-out: TACE IC50), the IC50 stood at 23 nM.

For `CC#CCOc1ccc(S(=O)(=O)N(C)C(C(=O)NO)c2ccc(OCCCNC(C)=O)cc2)cc1` (centres unmarked) [Example 194], the melting point is 88 °C (dec.). In addition, the IC50 on MMP-13 amounted to 15 nM. Also, the IC50 at MMP-1 worked out at 592 nM. Further, the IC50 in data set [1] (read-out: TACE IC50) came out at 61 nM.

`CC#CCOc1ccc(S(=O)(=O)N(C)C2(C(=O)NO)CCCCC2)cc1` [Example 136, 1-[{[4-(2-Butynyloxy)phenyl]sulfonyl}(methyl)amino]-N-hydroxycyclohexanecarboxamide] gave a melting point of 89 to 92 °C. Moreover, the IC50 on MMP-9 came out at 3750 nM. The IC50 on MMP-13 was 1630 nM. The IC50 at MMP-1 is 682 nM. Also, the IC50 in data set [1] (read-out: TACE IC50) was 574 nM.

On to `CC#CCOc1ccc(S(=O)(=O)N(C)C(CCCSc2ccc(Cl)cc2)C(=O)NO)cc1` (centres unmarked) [Example 213, 2-[{[4-(2-Butynyloxy)phenyl]sulfonyl}(methyl)amino]-5[(4-chlorophenyl)sulfanyl]-N-hydroxypentanamide], for which the melting point lay within 144 to 145.5 °C. Moreover, the IC50 at MMP-13 came to 9 nM. The IC50 at MMP-1 amounted to 453 nM. Further, in data set [1] (read-out: TACE IC50), the 50% inhibitory concentration (IC50) came to 210 nM.

The molecule `CC#CCOc1ccc(S(=O)(=O)N(C)C(C(=O)NO)c2ccc(OCCCNS(C)(=O)=O)cc2)cc1` (centres unmarked) [Example 197, 2-[{[4-(2-Butynyloxy)phenyl]sulfonyl}(methyl)amino]-N-hydroxy-2-(4-{3-[(methylsulfonyl)amino]propoxy}phenyl)acetamide] showed a melting point of 65 to 70 °C. Further, the concentration for half-maximal inhibition (IC50) on MMP-13 came out at 24 nM. The IC50 at MMP-1 was 569 nM. In addition, the IC50 in data set [1] (read-out: TACE IC50) came out at 25 nM.

`CC#CCOc1ccc(S(=O)(=O)N2CCSC3(CCCC3)C2C(=O)NO)cc1` (centres unmarked) [Example 236] showed a melting point of 206 to 208 °C. The IC50 at MMP-13 (Table 9) amounted to 11 nM. In addition, on MMP-1 (Table 9), the IC50 was 24 nM. Also, the IC50 in data set [1] (Table 9, read-out: TACE IC50) amounted to 43 nM.

With `CC#CCOc1ccc(S(=O)(=O)N2CCSCC2C(=O)NO)cc1` (centres unmarked) [Example 239], the melting point lay in the range of 150 to 154 °C. For the same molecule, the IC50 on MMP-9 (Table 9) was 21 nM. The IC50 at MMP-13 (Table 9) amounted to 12 nM. Moreover, the IC50 in data set [1] (Table 9, read-out: TACE IC50) turned out to be 2.9 nM.

As to `CC#CCOc1ccc(S(=O)(=O)N(C)C(C(=O)NO)c2ccc(OCCN(C)C(=O)OC(C)(C)C)cc2)cc1` (centres unmarked) [Example 191, tert-Butyl(2-{4-[1-({[4-(2-Butynyloxy)phenyl]sulfonyl}(methyl)amino)-2-(hydroxyamino)-2-oxoethyl)phenoxy]ethyl)-(methyl)carbamate], the melting point was 62 °C (dec.). On MMP-9, the IC50 is 37 nM. Moreover, the IC50 at MMP-13 was 60 nM. Moreover, the IC50 on MMP-1 is 1150 nM. In data set [1] (read-out: TACE IC50), the IC50 was 64 nM.

For `CC#CCOc1ccc(S(=O)(=O)N(C)C(C(=O)NO)c2ccc(OCCCNC(=O)OCC)cc2)cc1` (centres unmarked) [Example 193, Ethyl 3-{4-[1-[{[4-(2-Butynyloxy)phenyl]sulfonyl}(methyl)amino]-2-(hydroxyamino)-2-oxoethyl]phenoxy}propylcarbamate], the melting point was 60 to 62 °C. Besides, the IC50 on MMP-13 was 29.3 nM. For the same molecule, on MMP-1, the IC50 is roughly 1000 nM. For the same molecule, in data set [1] (read-out: TACE IC50), the IC50 is 61 nM.

For `CC#CCOc1ccc(S(=O)(=O)NC(C(=O)NO)c2ccc(OCCN3CCN(C(=O)OC(C)(C)C)CC3)cc2)cc1` (centres unmarked) [Example 202, tert-Butyl 4-(2-{4-[1-({[4-(2-Butynyloxy)phenyl]sulfonyl}amino)-2-(hydroxyamino)-2-oxoethyl)phenoxy]ethyl)-1-piperazinecarboxylate], the melting point lay within 92 to 95 °C. In addition, on MMP-13, the IC50 stood at 345 nM. For the same molecule, the IC50 on MMP-1 is greater than 10000 nM. Besides, in data set [1] (read-out: TACE IC50), the IC50 is 113 nM.

Molecule `CC#CCOc1ccc(S(=O)(=O)N(C)C(C(=O)NO)C(C)(C)SCCCN2CCN(C)CC2)cc1` (centres unmarked) [Example 147, 2-({[4-(2-Butynyloxy)phenyl]sulfonyl)(methyl)amino]-N-hydroxy-3 Methyl-3-{[2(4-methyl-1-ethyl-1-piperazinyl)propyl]sulfanyl}butanamide] registered a melting point of 58 to 62 °C. Further, the IC50 on MMP-9 came out at 5.3 nM. For the same molecule, at MMP-13, the IC50 was determined as 5.3 nM. In addition, on MMP-1, the IC50 came out at 21 nM. The IC50 in data set [1] (read-out: TACE IC50) was determined as 157 nM.

As to `CC#CCOc1ccc(S(=O)(=O)N(Cc2cccnc2)C(CSCc2ccccc2)C(=O)NO)cc1` (centres unmarked) [Example 157, 3-(Benzylthio)-2-[[[4-(2-butynyloxy)phenyl]sulfonyl]pyridin-3-ylmethylamino]-N-hydroxypropanamide], the melting point was 74 to 78 °C. Moreover, the IC50 on MMP-9 came out at 32 nM. At MMP-13, the IC50 is 3.8 nM. For the same molecule, the 50% inhibitory concentration (IC50) at MMP-1 came to 111 nM. Besides, the concentration for half-maximal inhibition (IC50) in data set [1] (read-out: TACE IC50) is 98 nM.

Regarding `CC#CCOc1ccc(S(=O)(=O)N(C)C(C(=O)NO)C(C)(C)SCCN(CC)CC)cc1` (centres unmarked) [Example 142, 2-({[4-(2-Butynyloxy)phenyl]sulfonyl)(methyl)amino]-N-hydroxy-3-methyl-3-{[2-(diethylamino)ethyl]sulfanyl}butanamide], the melting point was 55 to 57 °C. Also, the IC50 at MMP-9 was determined as 10 nM. The IC50 at MMP-13 is 14 nM. The IC50 on MMP-1 worked out at 72 nM. Also, the IC50 in data set [1] (read-out: TACE IC50) turned out to be 131 nM.

For `CC#CCOc1ccc(S(=O)(=O)N(Cc2cccnc2)C2(C(=O)NO)CCCCC2)cc1` [Example 137, 1-[{[4-(2-Butynyloxy)phenyl]sulfonyl}(3-pyridinylmethyl)amino]N-hydroxycyclohexanecarboxamide], the melting point lay within 179 to 181 °C. The IC50 at MMP-9 was 79 nM. Besides, at MMP-13, the concentration for half-maximal inhibition (IC50) stood at 48 nM. Moreover, at MMP-1, the IC50 worked out at 482 nM. Further, the IC50 in data set [1] (read-out: TACE IC50) came to 191 nM.

In turn, `CC#CCOc1ccc(S(=O)(=O)NC(C(=O)NO)c2ccc(OCCN3CCOCC3)cc2)cc1` (centres unmarked) [Example 206, 2-({[4-(2-Butynyloxy)phenyl]sulfonyl}amino)-N-hydroxy-2-{4-[2-(4-morpholinyl)ethoxy]phenyl}acetamide] returned a melting point of 80 to 86 °C. The IC50 on MMP-13 is 147 nM. Also, the half-maximal inhibitory concentration (IC50) on MMP-1 is greater than 10000 nM. In addition, the IC50 in data set [1] (read-out: TACE IC50) turned out to be 33 nM.

With `CC#CCOc1ccc(S(=O)(=O)N(C)C(C(=O)NO)c2ccc(OCCCNC(=O)OCCCC)cc2)cc1` (centres unmarked) [Example 195, Butyl 3-{4-[1-[{[4-(2-Butynyloxy)phenyl]sulfonyl}(methyl)amino]-2-(hydroxyamino)-2-oxoethyl]phenoxy}propylcarbamate], the melting point lay within 50 to 55 °C. For the same molecule, the IC50 at MMP-13 turned out to be 28 nM. Further, the IC50 on MMP-1 is greater than 1000 nM. In addition, in data set [1] (read-out: TACE IC50), the IC50 was 122 nM.

Molecule `CC#CCOc1ccc(S(=O)(=O)N(C)C(C(=O)NO)c2ccc(Cl)cc2)cc1` (centres unmarked) [Example 212, 2-[{[4-(2-Butynyloxy)phenyl]sulfonyl}(methyl)amino]-2-(4-chlorophenyl)-N-hydroxyacetamide] returned a melting point of 170 to 172 °C. Further, the IC50 at MMP-13 came out at 36 nM. Moreover, the IC50 on MMP-1 is 798 nM. The IC50 in data set [1] (read-out: TACE IC50) was determined as 62 nM.
